Assay results published in ChEMBL document CHEMBL1135297, “Enantioselective synthesis of S-(+)-2beta-carboalkoxy-3alpha-[bis(4-fluorophenyl)methoxy]tropanes as novel probes for the dopamine transporter” (Bioorg Med Chem Lett, 2002).

Experiments:
[1] = molecular target: Sodium-dependent serotonin transporter (Rattus norvegicus, UniProt P31652); assay: Ability to displace [3H]citalopram radioligand, for the Serotonin transporter in rat brain; format: tissue-based
[2] = molecular target: Sodium-dependent dopamine transporter (Rattus norvegicus, UniProt P23977); assay: Ability to displace [3H]WIN-35 radioligand for the dopamine transporter 428 DAT in rat brain; format: tissue-based
[3] = molecular target: T1, Muscarinic acetylcholine receptor M1 (Rattus norvegicus, UniProt P08482); assay: Ability to displace [3H]pirenzepine radioligand for the Muscarinic acetylcholine receptor M1 in rat brain; format: tissue-based
T1 sequence (P08482 whole entry): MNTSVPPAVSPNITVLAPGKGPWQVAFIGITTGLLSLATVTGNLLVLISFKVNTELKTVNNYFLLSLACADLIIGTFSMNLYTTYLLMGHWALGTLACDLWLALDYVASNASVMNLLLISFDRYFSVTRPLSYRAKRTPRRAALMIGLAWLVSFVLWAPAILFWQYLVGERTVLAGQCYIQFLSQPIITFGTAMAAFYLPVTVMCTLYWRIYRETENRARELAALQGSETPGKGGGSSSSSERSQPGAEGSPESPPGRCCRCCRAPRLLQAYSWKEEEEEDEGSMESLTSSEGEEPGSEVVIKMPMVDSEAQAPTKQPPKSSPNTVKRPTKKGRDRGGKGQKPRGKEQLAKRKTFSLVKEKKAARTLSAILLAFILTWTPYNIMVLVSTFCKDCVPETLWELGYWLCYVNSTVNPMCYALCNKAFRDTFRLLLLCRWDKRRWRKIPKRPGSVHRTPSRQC

[4] = species on record: Rattus norvegicus; assay: Inhibition of [3H]DA uptake in rat synaptosomes; format: functional, Brain
[5] = molecular target: Norepinephrine transporter (Rattus norvegicus, UniProt Q9WTR4); assay: Ability to displace [3H]-nisoxatine radioligand for the Norepinephrine transporter in rat brain; format: tissue-based
Chain of Norepinephrine transporter (Q9WTR4 whole entry): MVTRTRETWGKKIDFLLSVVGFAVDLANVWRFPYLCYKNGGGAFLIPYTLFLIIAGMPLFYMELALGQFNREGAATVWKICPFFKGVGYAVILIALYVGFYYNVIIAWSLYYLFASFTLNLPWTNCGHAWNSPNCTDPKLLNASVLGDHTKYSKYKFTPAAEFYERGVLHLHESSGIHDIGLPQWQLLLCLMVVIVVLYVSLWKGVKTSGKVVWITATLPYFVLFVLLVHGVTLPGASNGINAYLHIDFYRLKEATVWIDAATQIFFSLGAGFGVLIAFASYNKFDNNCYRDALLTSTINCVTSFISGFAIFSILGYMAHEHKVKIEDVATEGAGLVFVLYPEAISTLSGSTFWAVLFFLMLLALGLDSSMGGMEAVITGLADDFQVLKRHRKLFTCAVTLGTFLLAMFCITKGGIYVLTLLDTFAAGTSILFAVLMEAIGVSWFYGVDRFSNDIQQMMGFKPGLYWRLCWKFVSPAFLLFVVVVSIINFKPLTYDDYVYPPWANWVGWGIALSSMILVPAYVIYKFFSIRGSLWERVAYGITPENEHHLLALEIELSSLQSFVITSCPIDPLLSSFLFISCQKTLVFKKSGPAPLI

Chain of Sodium-dependent serotonin transporter (P31652 whole entry): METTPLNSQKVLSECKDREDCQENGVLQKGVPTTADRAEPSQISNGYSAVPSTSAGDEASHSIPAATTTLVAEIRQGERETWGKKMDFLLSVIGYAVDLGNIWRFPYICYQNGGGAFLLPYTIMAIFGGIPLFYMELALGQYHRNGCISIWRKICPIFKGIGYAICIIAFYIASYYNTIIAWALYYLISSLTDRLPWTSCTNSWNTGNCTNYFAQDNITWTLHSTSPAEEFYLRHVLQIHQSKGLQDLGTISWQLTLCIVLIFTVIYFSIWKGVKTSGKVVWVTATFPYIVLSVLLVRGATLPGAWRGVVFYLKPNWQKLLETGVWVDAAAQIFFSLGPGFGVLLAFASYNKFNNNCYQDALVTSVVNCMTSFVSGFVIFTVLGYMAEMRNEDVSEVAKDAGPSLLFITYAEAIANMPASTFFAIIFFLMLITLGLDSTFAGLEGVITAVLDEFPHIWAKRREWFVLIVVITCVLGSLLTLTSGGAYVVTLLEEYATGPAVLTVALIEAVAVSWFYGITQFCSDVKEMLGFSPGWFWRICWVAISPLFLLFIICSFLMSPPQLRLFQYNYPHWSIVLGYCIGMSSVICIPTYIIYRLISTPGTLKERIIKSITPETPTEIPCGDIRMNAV
Chain of Sodium-dependent dopamine transporter (P23977 whole entry): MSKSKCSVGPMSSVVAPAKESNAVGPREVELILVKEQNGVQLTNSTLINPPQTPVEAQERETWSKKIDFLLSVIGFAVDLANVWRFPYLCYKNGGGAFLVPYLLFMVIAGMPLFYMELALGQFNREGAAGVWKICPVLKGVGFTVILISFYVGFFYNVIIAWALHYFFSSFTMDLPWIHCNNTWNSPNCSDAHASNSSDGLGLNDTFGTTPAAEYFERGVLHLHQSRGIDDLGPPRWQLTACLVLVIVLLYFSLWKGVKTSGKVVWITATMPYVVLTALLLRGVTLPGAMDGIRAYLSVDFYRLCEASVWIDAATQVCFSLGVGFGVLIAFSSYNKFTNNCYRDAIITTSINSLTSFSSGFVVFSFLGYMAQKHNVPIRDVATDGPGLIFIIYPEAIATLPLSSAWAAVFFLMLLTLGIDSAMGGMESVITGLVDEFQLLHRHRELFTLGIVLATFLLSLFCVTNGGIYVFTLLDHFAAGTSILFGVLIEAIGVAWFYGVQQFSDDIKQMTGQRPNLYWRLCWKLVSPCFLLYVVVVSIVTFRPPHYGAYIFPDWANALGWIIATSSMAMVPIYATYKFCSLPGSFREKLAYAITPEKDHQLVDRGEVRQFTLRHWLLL

COC(=O)C1C(OC(c2ccc(F)cc2)c2ccc(F)cc2)CC2CCC1N2C (racemic)
Ki [1]: 1750 nM | Ki [2]: 21.3 nM | Ki [3]: 302 nM | IC50 [4]: 2.9 nM | Ki [5]: 474 nM

CN1C2CCC1CC(OC(c1ccc(F)cc1)c1ccc(F)cc1)C2 (stereo unspecified) [DIFLUOROBENZTROPINE]
Ki [1]: 3260 nM | Ki [5]: 610 nM

CC(C)OC(=O)C1C(OC(c2ccc(F)cc2)c2ccc(F)cc2)CC2CCC1N2C (racemic)
Ki [1]: 13800 nM | Ki [2]: 49.1 nM | Ki [3]: 7640 nM | IC50 [4]: 6.8 nM | Ki [5]: 1990 nM

CC(C)OC(=O)C1C(OC(c2ccc(F)cc2)c2ccc(F)cc2)CC2CCC1N2C (single isomer, unassigned; (+))
Ki [1]: 12000 nM | Ki [2]: 23.3 nM | Ki [3]: 2680 nM | IC50 ([4]; Rattus norvegicus, Brain): 6.2 nM | Ki [5]: 642 nM

CN1C2CCC1C(C(=O)OCc1ccccc1)C(OC(c1ccc(F)cc1)c1ccc(F)cc1)C2 (stereo unspecified)
Ki [1]: 2040 nM | Ki [2]: 40.2 nM | Ki [3]: 4380 nM | IC50 ([4]; Rattus norvegicus, Brain): 2.2 nM | Ki [5]: 2230 nM

CN1C2CCC1C(C(=O)OCc1ccccc1)C(OC(c1ccc(F)cc1)c1ccc(F)cc1)C2 (racemic)
Ki [1]: 3320 nM | Ki [2]: 90.3 nM | Ki [3]: 5100 nM | IC50 [4]: 3.5 nM | Ki [5]: 4110 nM

CCOC(=O)C1C(OC(c2ccc(F)cc2)c2ccc(F)cc2)CC2CCC1N2C (single isomer, unassigned; (+))
Ki [1]: 1850 nM | Ki [2]: 16.8 nM | Ki [3]: 1890 nM | Ki [5]: 629 nM

CCOC(=O)C1C(OC(c2ccc(F)cc2)c2ccc(F)cc2)CC2CCC1N2C (racemic)
Ki [1]: 3740 nM | Ki [2]: 26.2 nM | Ki [3]: 1860 nM | IC50 ([4]; Rattus norvegicus, Brain): 3.6 nM | Ki [5]: 1020 nM

COC(=O)C1C(OC(c2ccc(F)cc2)c2ccc(F)cc2)CC2CCC1N2C (single isomer, unassigned; (+))
Ki [1]: 690 nM | Ki [2]: 12.9 nM | Ki [3]: 133 nM | IC50 ([4]; Rattus norvegicus, Brain): 1.5 nM | Ki [5]: 269 nM
